Results as given in PMC3789257 (Journal of the American Chemical Society, 2012).

How the values were obtained:
p53 mutant Y220C [1] = conditions: binding to the mutation-induced crevice; cited from earlier work
p53 mutant Y220C [2] = conditions: in vitro; cited from earlier work
T-p53-Y220C = T-p53-Y220C (Homo sapiens, UniProt P04637, M133L/N239Y/N268D/V203A/Y220C); assay: 1H/15N-HSQC NMR titration; format: binding; conditions: 20 °C, 75 μM protein
T-p53C-Y220C = T-p53C-Y220C (Homo sapiens, UniProt P04637, M133L/N239Y/N268D/V203A/Y220C); assay: Isothermal titration calorimetry; format: binding
T-p53C-Y220C, sequence (P04637 102-292 limits assumed, stated change not applied): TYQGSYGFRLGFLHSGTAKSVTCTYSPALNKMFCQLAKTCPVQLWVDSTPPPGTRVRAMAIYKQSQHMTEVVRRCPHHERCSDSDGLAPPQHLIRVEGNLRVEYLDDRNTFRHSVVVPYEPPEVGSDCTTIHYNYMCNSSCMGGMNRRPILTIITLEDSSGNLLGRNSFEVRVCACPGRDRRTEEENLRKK

T-p53-Y220C, sequence (P04637 102-292 limits assumed, stated change not applied): as the sequence (P04637 102-292 limits assumed, stated change not applied) above

Kd (T-p53-Y220C) [µM] | Kd (T-p53C-Y220C) [µM] | Compound | Kd (p53 mutant Y220C [1]) [µM] | effect on melting temperature of the protein (p53 mutant Y220C [2])
– | – | CCn1c2ccccc2c2cc(CNC)ccc21 [PhiKan083] | 150 | raises the melting temperature
184 ± 23 | 225 | CN1CCC(N(C)Cc2cc(I)cc(I)c2O)CC1 [compound 3, 2,4-diiodo-6-((methyl(1-methylpiperidin-4-yl)amino)methyl)phenol] | – | –
